The text below walks through data of US20080132466A1, “Blood Cholesterol Reducing Oral Composition” (priority 2005, published 2008).

This test relates to Wister-ST male rats. Nature of the test: Total plasma cholesterol lowering effect of DFA and isoflavone in combination, rats fed for 19 days. The settings on record: 1.5% in isoflavone-containing feed. It counts as in vivo. From the text:
A total plasma cholesterol lowering effect was studied using DFA and an isoflavone in combination.
After preliminary feeding 21 Wister-ST male rats (6 weeks of age) a non-isoflavone feed for 3 days, the animals were divided into 3 groups (each n=7) by a body weight stratification procedure and were individually fed for 19 days a basal feed containing 0.25% food product supplemented with 40% isoflavone (basal diet group), a feed in which cellulose in the basal feed was replaced with 1.5% (final) DFA III (DFA III group), and a feed in which cellulose in the basal feed was replaced with 1.5% (final) fructooligosaccharide (FOS group), as shown in Table 1. On the 20th day, blood samples were taken from the abdominal aorta to obtain plasma by centrifugation and the total plasma cholesterol was measured using an automatic analyzer (DRI-CHEM 3500, Fuji Film Medical).
In the table, figures with different alphabets, a and b, denote that there is a significant difference between the figures. […] The level of HDL cholesterol was slightly low in the DFA III group; however, the differences between the groups were not significant.

Consider `OC[C@H]1O[C@@]2(CO[C@]3(CO)O[C@H](CO)[C@@H](O)[C@@H]3O2)[C@@H](O)[C@@H]1O` [DFA III, difructose anhydride], for which the “level of HDL cholesterol (in words)” value (differences between groups not significant) is listed as “slightly low”. Further, the “total serum cholesterol level compared to the group fed an isoflavone alone (in words)” value (p=0.051 (Sheffe) basal diet vs DFA III) is “tended to be lowered”.
